According to patent US11597704B2, “2,4-diaminoquinazoline derivatives and medical uses thereof” (Janssen Sciences Ireland Unlimited Company, priority 2018, dated 2023):

Assays:
human TLR7 = target: T1, human TLR7 (Homo sapiens, UniProt Q9NYK1); experiment: TLR7 NFκB-luc cellular reporter assay in transiently transfected HEK293 cells; type: cell-based; conditions: lowest effective concentration; HEK293 cells transfected with wild type TLR7 and NFκB-luc reporter, 6 h incubation
T1 construct: expressed in transfected cells; host or cells: HEK293
T1 sequence (Q9NYK1 27-1049): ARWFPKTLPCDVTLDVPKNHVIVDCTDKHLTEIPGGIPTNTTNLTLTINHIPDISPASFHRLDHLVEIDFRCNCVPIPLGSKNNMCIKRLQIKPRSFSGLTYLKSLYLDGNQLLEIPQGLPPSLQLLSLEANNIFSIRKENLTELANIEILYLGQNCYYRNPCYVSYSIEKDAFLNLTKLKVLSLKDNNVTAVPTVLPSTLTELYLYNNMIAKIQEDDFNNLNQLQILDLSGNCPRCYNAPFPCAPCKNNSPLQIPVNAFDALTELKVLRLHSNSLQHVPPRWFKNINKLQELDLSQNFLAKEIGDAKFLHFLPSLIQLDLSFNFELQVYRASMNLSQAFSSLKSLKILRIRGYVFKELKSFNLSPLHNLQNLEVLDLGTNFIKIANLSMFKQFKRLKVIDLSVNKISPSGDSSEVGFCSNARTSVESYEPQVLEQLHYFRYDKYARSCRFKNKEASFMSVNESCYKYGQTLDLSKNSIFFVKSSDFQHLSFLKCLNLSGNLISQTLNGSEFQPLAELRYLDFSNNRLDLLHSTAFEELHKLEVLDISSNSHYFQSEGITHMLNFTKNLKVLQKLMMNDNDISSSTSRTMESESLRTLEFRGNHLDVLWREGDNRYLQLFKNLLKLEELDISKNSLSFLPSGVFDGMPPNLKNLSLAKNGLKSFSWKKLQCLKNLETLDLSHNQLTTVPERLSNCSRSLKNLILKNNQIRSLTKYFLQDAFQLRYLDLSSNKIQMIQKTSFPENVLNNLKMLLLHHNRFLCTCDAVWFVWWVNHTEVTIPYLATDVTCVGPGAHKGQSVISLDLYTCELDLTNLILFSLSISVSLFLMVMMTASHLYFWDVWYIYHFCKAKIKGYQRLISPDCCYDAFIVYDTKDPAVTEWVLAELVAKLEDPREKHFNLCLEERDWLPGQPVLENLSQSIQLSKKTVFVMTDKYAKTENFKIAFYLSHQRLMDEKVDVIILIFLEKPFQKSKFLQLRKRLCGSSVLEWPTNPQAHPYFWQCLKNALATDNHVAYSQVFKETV
Experimental: (§1) The ability of compounds to activate human TLR7 and/or TLR8 was assessed in a cellular reporter assay using HEK293 cells transiently transfected with a TLR7 or TLR8 expression vector and NFκB-luc reporter construct. In one instance, the TLR expression construct expresses the respective wild type sequence or a mutant sequence comprising a deletion in the second leucine-rich repeat of the TLR.
(§2) HEK293 cells were grown in culture medium (DMEM supplemented with 10% FCS and 2 mM Glutamine). For transfection of cells in 10 cm dishes, cells were detached with Trypsin-EDTA, transfected with a mix of CMV-TLR7 or TLR8 plasmid (750 ng), NFκB-luc plasmid (375 ng) and a transfection reagent and incubated 24 h at 37° C. in a humidified 5% C02 atmosphere. Transfected cells were then detached with Trypsin-EDTA, washed in PBS and re-suspended in medium to a density of 1.67×10^5 cells/mL. Thirty microliters of cells were then dispensed into each well in 384-well plates, where 10 μL of compound in 4% DMSO was already present. Following 6 h incubation at 37° C., 5% CO2, the luciferase activity was determined by adding 15 μl of STEADY LITE PLUS substrate (PERKIN ELMER) to each well and readout performed on a VIEWLUX ULTRAHTS microplate imager (PERKIN ELMER). Dose response curves were generated from measurements performed in quadruplicates. Lowest effective concentrations (LEC) values, defined as the concentration that induces an effect which is at least two-fold above the standard deviation of the assay, were determined for each compound.

human TLR8 = target: T2, human TLR8 (Homo sapiens, UniProt Q9NR97); experiment: TLR8 NFκB-luc cellular reporter assay in transiently transfected HEK293 cells; type: cell-based; conditions: lowest effective concentration; HEK293 cells transfected with wild type TLR8 and NFκB-luc reporter, 6 h incubation
T2 construct: expressed in transfected cells; host or cells: HEK293
T2 sequence (Q9NR97 27-1041): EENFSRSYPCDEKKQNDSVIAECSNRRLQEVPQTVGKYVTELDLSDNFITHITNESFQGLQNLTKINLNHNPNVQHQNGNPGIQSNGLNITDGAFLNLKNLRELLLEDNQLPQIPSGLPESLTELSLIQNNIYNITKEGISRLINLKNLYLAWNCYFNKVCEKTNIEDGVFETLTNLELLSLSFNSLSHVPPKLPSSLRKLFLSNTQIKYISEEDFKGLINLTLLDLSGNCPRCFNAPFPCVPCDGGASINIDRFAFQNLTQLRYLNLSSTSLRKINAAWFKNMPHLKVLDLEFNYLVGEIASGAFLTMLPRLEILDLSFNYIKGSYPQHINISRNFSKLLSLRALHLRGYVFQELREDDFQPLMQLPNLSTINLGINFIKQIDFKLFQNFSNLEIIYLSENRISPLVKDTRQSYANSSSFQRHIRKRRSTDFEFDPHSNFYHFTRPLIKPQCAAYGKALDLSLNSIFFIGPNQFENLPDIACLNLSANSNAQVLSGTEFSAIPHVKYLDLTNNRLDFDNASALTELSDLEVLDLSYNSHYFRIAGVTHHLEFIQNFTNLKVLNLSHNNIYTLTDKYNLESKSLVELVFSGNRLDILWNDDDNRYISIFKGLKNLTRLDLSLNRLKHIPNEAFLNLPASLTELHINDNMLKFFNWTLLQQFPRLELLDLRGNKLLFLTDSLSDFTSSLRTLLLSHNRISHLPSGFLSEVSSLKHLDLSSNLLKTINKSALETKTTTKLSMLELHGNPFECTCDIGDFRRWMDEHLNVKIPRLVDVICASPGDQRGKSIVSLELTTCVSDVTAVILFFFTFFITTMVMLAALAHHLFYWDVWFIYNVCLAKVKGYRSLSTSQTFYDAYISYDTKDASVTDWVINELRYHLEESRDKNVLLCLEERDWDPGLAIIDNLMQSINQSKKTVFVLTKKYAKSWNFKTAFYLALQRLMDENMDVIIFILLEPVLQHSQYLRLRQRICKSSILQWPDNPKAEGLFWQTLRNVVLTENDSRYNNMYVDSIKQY
Experimental: as §1, §2

Structure (SMILES) | hTLR7-wt (LEC) (human TLR7) | hTLR8-wt (LEC) (human TLR8)
CCCC[C@H](CO)Nc1nc(N)nc2cccc(C3CC3)c12 [Compound 1, (R)-2-((2-amino-5-cyclopropylquinazolin-4-yl)amino)hexan-1-ol] | > 100 µM | 0.35 µM
CCCC[C@H](CO)Nc1nc(N)nc2cccc(F)c12 [Compound 2, (R)-2-((2-amino-5-fluoroquinazolin-4-yl)amino)hexan-1-ol] | 27.7 µM | 0.07 µM
CCCC[C@H](CO)Nc1nc(N)nc2cccc(C(F)(F)F)c12 [Compound 3, (R)-2-((2-amino-5-(trifluoromethyl)quinazolin-4-yl)amino)hexan-1-ol] | > 100 µM | 0.66 µM
CCCC[C@H](CO)Nc1nc(N)nc2cc(C#N)ccc12 [Compound 4, (R)-2-amino-4-((1-hydroxyhexan-2-yl)amino)quinazoline-7-carbonitrile] | > 100 µM | 0.14 µM
CCCC[C@H](CO)Nc1nc(N)nc2cc(-c3nnco3)ccc12 [Compound 5, (R)-2-((2-amino-7-(1,3,4-oxadiazol-2-yl)quinazolin-4-yl)amino)hexan-1-ol] | > 25 µM | 0.38 µM
CCC[C@H](CO)Nc1nc(N)nc2c(C)cccc12 [Compound 6, (R)-2-((2-amino-8-methylquinazolin-4-yl)amino)pentan-1-ol] | > 25 µM | 5.75 µM
CCCC[C@H](CO)Nc1nc(N)nc2c(C)cccc12 [Compound 7, (R)-2-((2-amino-8-methylquinazolin-4-yl)amino)hexan-1-ol] | > 25 µM | 0.46 µM
CCCC[C@H](CO)Nc1nc(N)nc2c(Cl)cccc12 [Compound 8, (R)-2-((2-amino-8-chloroquinazolin-4-yl)amino)hexan-1-ol] | > 25 µM | 2.72 µM
CCCC[C@H](CO)Nc1nc(N)nc2c(F)cccc12 [Compound 9, (R)-2-((2-amino-8-fluoroquinazolin-4-yl)amino)hexan-1-ol] | > 25 µM | 0.11 µM
CCC[C@H](CO)Nc1nc(N)nc2c(F)cccc12 [Compound 10, (R)-2-((2-amino-8-fluoroquinazolin-4-yl)amino)pentan-1-ol] | > 25 µM | 3.27 µM
CCCC[C@H](COC(=O)C(C)C)Nc1nc(N)nc2c(C)cccc12 [Compound 11, (R)-2-((2-amino-8-methylquinazolin-4-yl)amino)hexyl isobutyrate] | > 25 µM | 0.64 µM
CCCC[C@H](CO)Nc1nc(N)nc2cccc(OC)c12 [Compound 12, (R)-2-((2-amino-5-methoxyquinazolin-4-yl)amino)hexan-1-ol] | 11.3 µM | 0.39 µM
CCCC[C@H](CO)Nc1nc(N)nc2cc(F)ccc12 [Compound 13, (R)-2-((2-amino-7-fluoroquinazolin-4-yl)amino)hexan-1-ol] | 29.4 µM | 0.04 µM
CCCC[C@H](CO)Nc1nc(N)nc2cc(C)ccc12 [Compound 14, (R)-2-((2-amino-7-methylquinazolin-4-yl)amino)hexan-1-ol] | 11.5 µM | 0.11 µM
CCCC[C@H](CO)Nc1nc(N)nc2cccc(Cl)c12 [Compound 15, (R)-2-((2-amino-5-chloroquinazolin-4-yl)amino)hexan-1-ol] | > 100 µM | 0.07 µM
CCCC[C@H](CO)Nc1nc(N)nc2cccc(C)c12 [Compound 16, (R)-2-((2-amino-5-methylquinazolin-4-yl)amino)hexan-1-ol] | > 100 µM | 0.19 µM
CCCC[C@H](CO)Nc1nc(N)nc2c(OC)cccc12 [Compound 17, (R)-2-((2-amino-8-methoxyquinazolin-4-yl)amino)hexan-1-ol] | > 50 µM | 3.74 µM
CCCC[C@H](CO)Nc1nc(N)nc2cc(C(=O)OC)ccc12 [Compound 18, Methyl (R)-2-amino-4-((1-hydroxyhexan-2-yl)amino)quinazoline-7-carboxylate] | > 100 µM | 0.57 µM
CCCC[C@H](CO)Nc1nc(N)nc2c(F)c(F)ccc12 [Compound 19, (R)-2-((2-amino-7,8-difluoroquinazolin-4-yl)amino)hexan-1-ol] | > 100 µM | 0.41 µM
CSCC[C@H](CO)Nc1nc(N)nc2cccc(F)c12 [Compound 20, (R)-2-((2-amino-5-fluoroquinazolin-4-yl)amino)-4-(methylthio)butan-1-ol] | > 50 µM | 0.7 µM
CC[C@H](C)[C@H](CO)Nc1nc(N)nc2cccc(F)c12 [Compound 21, (2R,3S)-2-((2-amino-5-fluoroquinazolin-4-yl)amino)-3-methylpentan-1-ol] | 1.71 µM | 0.09 µM
CCCC[C@H](CO)Nc1nc(N)nc2cccc(C(=O)NC)c12 [Compound 22, (R)-2-amino-4-((1-hydroxyhexan-2-yl)amino)-N-methylquinazoline-5-carboxamide] | 2.17 µM | 1.81 µM
CCCC[C@H](CO)Nc1nc(N)nc2cc(F)cc(F)c12 [Compound 23, (R)-2-((2-amino-5,7-difluoroquinazolin-4-yl)amino)hexan-1-ol] | 6.24 µM | 0.04 µM
CCCC[C@H](CO)Nc1nc(N)nc2cc(C(F)(F)F)ccc12 [Compound 24, (R)-2-((2-amino-7-(trifluoromethyl)quinazolin-4-yl)amino)hexan-1-ol] | 3.36 µM | 0.35 µM
CCCC[C@H](CO)Nc1nc(N)nc2cc(C(=O)N(C)C)ccc12 [Compound 25, (R)-2-amino-4-((1-hydroxyhexan-2-yl)amino)-N,N-dimethylquinazoline-7-carboxamide] | > 100 µM | 3.89 µM
